Measured values from ChEMBL document CHEMBL3885861, “Open TG-GATES”.

Species: Rattus norvegicus
Assay: Open TG-GATES - Regimen: Single
Type: toxicity, organism-based, Sprague-Dawley
Design: regimen Single, gender Male, age 6 weeks
Conditions: in vivo, po, route gavage; for APTT / Bas / Eos / Fbg / Hb / Ht / Lym / MCH / MCHC / MCV / Mono / Neu / PT / Plat / RBC / Ret / WBC: tissue Blood; for KIDNEY_L / KIDNEY_R / KIDNEY_TOTAL: tissue Kidney; for LIVER: tissue Liver; for A/G / ALP / ALT / AST / BUN / CRE / Ca / Cl / DBIL / GLC / IP / K / LDH / Na / PL / RALB / TBIL / TC / TG / TP / gamma-GTP: tissue Plasma
[1] = 600 mg/kg, 3 h, dose level Middle
[2] = 600 mg/kg, 6 h, dose level Middle
[3] = 600 mg/kg, 9 h, dose level Middle
[4] = 600 mg/kg, 24 h, dose level Middle
[5] = 2000 mg/kg, 3 h, dose level High
[6] = 2000 mg/kg, 6 h, dose level High
[7] = 2000 mg/kg, 9 h, dose level High
[8] = 2000 mg/kg, 24 h, dose level High

## NNC(=O)c1ccncc1 [ISONIAZID]
[1]
  TERMINAL_BW: 221.5 g
  APTT: 19.8 s
  Bas: 0%
  Eos: 1%
  Fbg: 231 mg/dL
  Hb: 13.7 g/dL
  Ht: 37.8%
  Lym: 72.6%
  MCH: 22 pg
  MCHC: 36.2%
  MCV: 60.8 fL
  Mono: 2.4%
  Neu: 23.2%
  PT: 12.2 s
  Plat: 125.7 x10_4/uL
  RBC: 622.4 x10_4/ul
  Ret: 7.4%
  WBC: 67.3 x10_2/uL
  KIDNEY_L: 0.9 g
  KIDNEY_R: 0.9 g
  KIDNEY_TOTAL: 1.9 g
  LIVER: 9.6 g
  A/G: 1.7
  ALP: 950 IU/L
  ALT: 39.6 IU/L
  AST: 73.6 IU/L
  BUN: 9 mg/dL
  CRE: 0.4 mg/dL
  Ca: 10.3 mg/dL
  Cl: 104 meq/L
  DBIL: 0.064 mg/dL
  GLC: 197.6 mg/dL
  IP: 10 mg/dL
  K: 3.7 meq/L
  LDH: 177.2 IU/L
  Na: 141.4 meq/L
  PL: 134.8 mg/dL
  RALB: 3.6 g/dL
  TBIL: 0.1 mg/dL
  TC: 78.2 mg/dL
  TG: 49.6 mg/dL
  TP: 5.7 g/dL
  gamma-GTP: 1 IU/L
[2]
  TERMINAL_BW: 219.2 g
  APTT: 18.4 s
  Bas: 0%
  Eos: 0.8%
  Fbg: 223.4 mg/dL
  Hb: 13.6 g/dL
  Ht: 37.9%
  Lym: 78.8%
  MCH: 22 pg
  MCHC: 36%
  MCV: 61.3 fL
  Mono: 1.8%
  Neu: 17.6%
  PT: 12.2 s
  Plat: 133.3 x10_4/uL
  RBC: 619 x10_4/ul
  Ret: 7.6%
  WBC: 75.7 x10_2/uL
  KIDNEY_L: 1 g
  KIDNEY_R: 1 g
  KIDNEY_TOTAL: 1.9 g
  LIVER: 9.6 g
  A/G: 1.6
  ALP: 838.6 IU/L
  ALT: 27.6 IU/L
  AST: 52.2 IU/L
  BUN: 9.4 mg/dL
  CRE: 0.4 mg/dL
  Ca: 10.3 mg/dL
  Cl: 104.6 meq/L
  DBIL: 0.066 mg/dL
  GLC: 210 mg/dL
  IP: 9.3 mg/dL
  K: 3.6 meq/L
  LDH: 202.8 IU/L
  Na: 142.8 meq/L
  PL: 142.2 mg/dL
  RALB: 3.5 g/dL
  TBIL: 0.1 mg/dL
  TC: 71 mg/dL
  TG: 90.4 mg/dL
  TP: 5.8 g/dL
  gamma-GTP: 1 IU/L
[3]
  TERMINAL_BW: 219.9 g
  APTT: 17.5 s
  Bas: 0%
  Eos: 0.8%
  Fbg: 222.8 mg/dL
  Hb: 13.5 g/dL
  Ht: 37.4%
  Lym: 70.6%
  MCH: 21.9 pg
  MCHC: 36.1%
  MCV: 60.6 fL
  Mono: 1.6%
  Neu: 26%
  PT: 12.3 s
  Plat: 116 x10_4/uL
  RBC: 616.6 x10_4/ul
  Ret: 7.1%
  WBC: 71.5 x10_2/uL
  KIDNEY_L: 1 g
  KIDNEY_R: 1 g
  KIDNEY_TOTAL: 2 g
  LIVER: 8.8 g
  A/G: 1.5
  ALP: 752.2 IU/L
  ALT: 23.2 IU/L
  AST: 44.6 IU/L
  BUN: 7.8 mg/dL
  CRE: 0.4 mg/dL
  Ca: 10.3 mg/dL
  Cl: 105 meq/L
  DBIL: 0.066 mg/dL
  GLC: 200.6 mg/dL
  IP: 9 mg/dL
  K: 3.8 meq/L
  LDH: 203.6 IU/L
  Na: 142.6 meq/L
  PL: 152.8 mg/dL
  RALB: 3.4 g/dL
  TBIL: 0.1 mg/dL
  TC: 78.2 mg/dL
  TG: 74.6 mg/dL
  TP: 5.7 g/dL
  gamma-GTP: 1 IU/L
[4]
  TERMINAL_BW: 215.6 g
  APTT: 19.7 s
  Bas: 0.4%
  Eos: 0.8%
  Fbg: 218.6 mg/dL
  Hb: 14.5 g/dL
  Ht: 39.6%
  Lym: 86.4%
  MCH: 22.4 pg
  MCHC: 36.7%
  MCV: 61 fL
  Mono: 2.4%
  Neu: 8.8%
  PT: 12.9 s
  Plat: 139.5 x10_4/uL
  RBC: 649.2 x10_4/ul
  Ret: 3.7%
  WBC: 85.9 x10_2/uL
  KIDNEY_L: 1 g
  KIDNEY_R: 1 g
  KIDNEY_TOTAL: 2.1 g
  LIVER: 9.8 g
  A/G: 1.7
  ALP: 817.6 IU/L
  ALT: 15.2 IU/L
  AST: 32.2 IU/L
  BUN: 17.8 mg/dL
  CRE: 0.4 mg/dL
  Ca: 10.6 mg/dL
  Cl: 104.4 meq/L
  DBIL: 0.06 mg/dL
  GLC: 189.2 mg/dL
  IP: 8.9 mg/dL
  K: 3.9 meq/L
  LDH: 202.4 IU/L
  Na: 143.4 meq/L
  PL: 123.2 mg/dL
  RALB: 3.6 g/dL
  TBIL: 0.1 mg/dL
  TC: 58.6 mg/dL
  TG: 69.6 mg/dL
  TP: 5.7 g/dL
  gamma-GTP: 1 IU/L
[5]
  TERMINAL_BW: 221 g
  APTT: 20.8 s
  Bas: 0%
  Eos: 1.2%
  Fbg: 218.2 mg/dL
  Hb: 13.8 g/dL
  Ht: 38.4%
  Lym: 73.8%
  MCH: 22.2 pg
  MCHC: 36%
  MCV: 61.7 fL
  Mono: 2%
  Neu: 22.2%
  PT: 12.3 s
  Plat: 117.2 x10_4/uL
  RBC: 621.8 x10_4/ul
  Ret: 7.9%
  WBC: 51.3 x10_2/uL
  KIDNEY_L: 1 g
  KIDNEY_R: 1 g
  KIDNEY_TOTAL: 1.9 g
  LIVER: 9.8 g
  A/G: 1.7
  ALP: 760.4 IU/L
  ALT: 31.4 IU/L
  AST: 66.4 IU/L
  BUN: 8.8 mg/dL
  CRE: 0.4 mg/dL
  Ca: 10.4 mg/dL
  Cl: 102.4 meq/L
  DBIL: 0.062 mg/dL
  GLC: 221.8 mg/dL
  IP: 10.2 mg/dL
  K: 4 meq/L
  LDH: 231.8 IU/L
  Na: 141.2 meq/L
  PL: 136 mg/dL
  RALB: 3.6 g/dL
  TBIL: 0.1 mg/dL
  TC: 72.8 mg/dL
  TG: 58.8 mg/dL
  TP: 5.7 g/dL
  gamma-GTP: 0.8 IU/L
[6]
  TERMINAL_BW: 217.4 g
  APTT: 19.1 s
  Bas: 0%
  Eos: 0.8%
  Fbg: 231 mg/dL
  Hb: 13.7 g/dL
  Ht: 38.1%
  Lym: 68.4%
  MCH: 22 pg
  MCHC: 36%
  MCV: 61 fL
  Mono: 1.6%
  Neu: 28.2%
  PT: 12.2 s
  Plat: 128.8 x10_4/uL
  RBC: 625.4 x10_4/ul
  Ret: 8.1%
  WBC: 60.7 x10_2/uL
  KIDNEY_L: 1 g
  KIDNEY_R: 1 g
  KIDNEY_TOTAL: 1.9 g
  LIVER: 9.6 g
  A/G: 1.5
  ALP: 774.2 IU/L
  ALT: 27.8 IU/L
  AST: 43.8 IU/L
  BUN: 8.8 mg/dL
  CRE: 0.5 mg/dL
  Ca: 10.4 mg/dL
  Cl: 104.2 meq/L
  DBIL: 0.062 mg/dL
  GLC: 222.4 mg/dL
  IP: 9.2 mg/dL
  K: 3.7 meq/L
  LDH: 185.6 IU/L
  Na: 141.8 meq/L
  PL: 151.2 mg/dL
  RALB: 3.5 g/dL
  TBIL: 0.1 mg/dL
  TC: 78.2 mg/dL
  TG: 47.8 mg/dL
  TP: 5.9 g/dL
  gamma-GTP: 1 IU/L
[7]
  TERMINAL_BW: 217 g
  APTT: 18.6 s
  Bas: 0.2%
  Eos: 1%
  Fbg: 230 mg/dL
  Hb: 14 g/dL
  Ht: 38.5%
  Lym: 70.4%
  MCH: 21.7 pg
  MCHC: 36.3%
  MCV: 59.8 fL
  Mono: 1.8%
  Neu: 26%
  PT: 12.5 s
  Plat: 131.2 x10_4/uL
  RBC: 644 x10_4/ul
  Ret: 7%
  WBC: 61.3 x10_2/uL
  KIDNEY_L: 1 g
  KIDNEY_R: 1 g
  KIDNEY_TOTAL: 2.1 g
  LIVER: 9 g
  A/G: 1.7
  ALP: 823.6 IU/L
  ALT: 23.8 IU/L
  AST: 40.8 IU/L
  BUN: 8.8 mg/dL
  CRE: 0.4 mg/dL
  Ca: 10.5 mg/dL
  Cl: 104 meq/L
  DBIL: 0.066 mg/dL
  GLC: 211 mg/dL
  IP: 9.2 mg/dL
  K: 3.6 meq/L
  LDH: 195.4 IU/L
  Na: 142.4 meq/L
  PL: 151.8 mg/dL
  RALB: 3.7 g/dL
  TBIL: 0.1 mg/dL
  TC: 76.2 mg/dL
  TG: 78 mg/dL
  TP: 5.9 g/dL
  gamma-GTP: 1 IU/L
[8]
  TERMINAL_BW: 212.5 g
  APTT: 18.8 s
  Bas: 0.2%
  Eos: 0.8%
  Fbg: 196 mg/dL
  Hb: 14.7 g/dL
  Ht: 40.4%
  Lym: 75.4%
  MCH: 22.4 pg
  MCHC: 36.4%
  MCV: 61.6 fL
  Mono: 3.4%
  Neu: 19.6%
  PT: 14.4 s
  Plat: 152.8 x10_4/uL
  RBC: 656.4 x10_4/ul
  Ret: 2.8%
  WBC: 41.4 x10_2/uL
  KIDNEY_L: 1.1 g
  KIDNEY_R: 1.1 g
  KIDNEY_TOTAL: 2.2 g
  LIVER: 9.5 g
  A/G: 1.8
  ALP: 761.4 IU/L
  ALT: 12 IU/L
  AST: 25.8 IU/L
  BUN: 14 mg/dL
  CRE: 0.5 mg/dL
  Ca: 10.1 mg/dL
  Cl: 103.8 meq/L
  DBIL: 0.06 mg/dL
  GLC: 205.4 mg/dL
  IP: 8.4 mg/dL
  K: 3.9 meq/L
  LDH: 203.8 IU/L
  Na: 143 meq/L
  PL: 114.2 mg/dL
  RALB: 3.5 g/dL
  TBIL: 0.1 mg/dL
  TC: 47 mg/dL
  TG: 90 mg/dL
  TP: 5.5 g/dL
  gamma-GTP: 0.8 IU/L
